Measurements taken from patent US20150266850A1 (E.I.DU PONT DE NEMOURS AND COMPANY, priority 2012, published 2015).
Marks after values point to notes of the source that are not given here.

Experiments:
Assay type in all cases: in vivo
[1] = system: Puccinia recondita f sp. tritici; experiment: Test B: wheat leaf rust, preventive spray on wheat seedlings, visual disease rating; conditions: 100 = 100% disease control; for pest or weed control at 40 ppm / pest or weed control at 50 ppm: 192 h
Description: (§1) General protocol for preparing test suspensions for Tests A-E: the test compounds were first dissolved in acetone in an amount equal to 11% of the final volume and then suspended at the desired concentration (in ppm) in acetone and purified water (50/50 mix by volume) containing 250 ppm of the surfactant Trem® 014 (polyhydric alcohol esters). The resulting test suspensions were then used in Tests A-E. Spraying a 200 ppm test suspension to the point of run-off on the test plants was the equivalent of a rate of 800 g/ha.
The test suspension was sprayed to the point of run-off on wheat seedlings. The following day the seedlings were inoculated with a spore suspension of Puccinia recondita f sp. tritici (the causal agent of wheat leaf rust) and incubated in a saturated atmosphere at 20° C. for 24 h, and then moved to a growth chamber at 20° C. for 7 days, after which time disease ratings were visually made.
(§2) Results for Tests A-E are given in Table A. In the Table, a rating of 100 indicates 100% disease control and a rating of 0 indicates no disease control (relative to the controls). A dash (-) indicates no test results. All results are for 200 ppm except where followed by an “*”, which indicates 40 ppm or “**”, which indicates 50 ppm.

[2] = system: Erysiphe graminis f. sp. tritici; experiment: Test A: wheat powdery mildew, preventive spray on wheat seedlings, visual disease rating; conditions: 100 = 100% disease control; for pest or weed control at 40 ppm / pest or weed control at 50 ppm: Blumeria graminis, 192 h
Description: as §1
The test suspension was sprayed to the point of run-off on wheat seedlings. The following day the seedlings were inoculated with a spore dust of Erysiphe graminis f. sp. tritici, (the causal agent of wheat powdery mildew) and incubated in a growth chamber at 20° C. for 8 days, after which time disease ratings were visually made.
as §2

Septoria tritici = experiment: Test C: wheat leaf blotch, preventive spray on wheat seedlings, visual disease rating; conditions: 100 = 100% disease control; for pest or weed control at 40 ppm: Zymoseptoria tritici, 504 h
Description: as §1
(§3) The test suspension was sprayed to the point of run-off on wheat seedlings. The following day the seedlings were inoculated with a spore suspension of Septoria tritici (the causal agent of wheat leaf blotch) and incubated in a saturated atmosphere at 24° C. for 48 h, and then moved to a growth chamber at 20° C. for 19 days, after which time disease ratings were visually made.
as §2

Septoria nodorum = experiment: Test D: wheat glume blotch, preventive spray on wheat seedlings, visual disease rating; conditions: 100 = 100% disease control; for pest or weed control at 40 ppm / pest or weed control at 50 ppm: Parastagonospora nodorum, 216 h
Description: as §1
as §3, with “nodorum” for “tritici”, “glume” for “leaf”, “20°” for “24°”, “7” for “19”
as §2

## COC(=O)NCc1cc(-n2ccc(-c3ccc(C(F)(F)F)cc3C)n2)ccc1C [Cmpd 100]
[1]; 40 ppm (*)
  Test B disease control rating: 100* %
[2]; 40 ppm (*)
  Test A disease control rating: 99* %
Septoria tritici; 40 ppm (*)
  Test C disease control rating: 97* %
Septoria nodorum; 40 ppm (*)
  Test D disease control rating: 100* %

## COC(=O)NCc1cc(-n2ccc(-c3ccc(C(F)(F)F)cc3OC)n2)ccc1C [Cmpd 101]
[1]; 40 ppm (*)
  Test B disease control rating: 100* %
[2]; 40 ppm (*)
  Test A disease control rating: 99* %
Septoria tritici; 40 ppm (*)
  Test C disease control rating: 94* %
Septoria nodorum; 40 ppm (*)
  Test D disease control rating: 100* %

## COC(=O)NCc1cc(-n2ccc(-c3ccc(Br)cc3C)n2)ccc1C [Cmpd 102]
[1]; 40 ppm (*)
  Test B disease control rating: 100* %
[2]; 40 ppm (*)
  Test A disease control rating: 99* %
Septoria tritici; 40 ppm (*)
  Test C disease control rating: 98* %
Septoria nodorum; 40 ppm (*)
  Test D disease control rating: 100* %

## COC(=O)NCc1cc(-n2ncc(-c3ccc(OCC#N)cc3C)n2)ccc1C [Cmpd 105]
[1]; 40 ppm (*)
  Test B disease control rating: 99* %
[2]; 40 ppm (*)
  Test A disease control rating: 90* %
Septoria tritici; 40 ppm (*)
  Test C disease control rating: 86* %
Septoria nodorum; 40 ppm (*)
  Test D disease control rating: 100* %

## C#CCOc1ccc(-c2cnn(-c3ccc(C)c(CNC(=O)OC)c3)n2)c(C)c1 [Cmpd 106]
[1]; 40 ppm (*)
  Test B disease control rating: 100* %
[2]; 40 ppm (*)
  Test A disease control rating: 99* %
Septoria tritici; 40 ppm (*)
  Test C disease control rating: 98* %
Septoria nodorum; 40 ppm (*)
  Test D disease control rating: 100* %

## CCOc1ccc(-c2cnn(-c3ccc(C)c(CNC(=O)OC)c3)n2)c(C)c1 [Cmpd 107]
[1]; 40 ppm (*)
  Test B disease control rating: 100* %
[2]; 40 ppm (*)
  Test A disease control rating: 99* %
Septoria tritici; 40 ppm (*)
  Test C disease control rating: 99* %
Septoria nodorum; 40 ppm (*)
  Test D disease control rating: 100* %

## C#Cc1ccc(-c2ccn(-c3ccc(C)c(CNC(=O)OC)c3)n2)c(C)c1 [Cmpd 112]
[1]; 40 ppm (*)
  Test B disease control rating: 100* %
[2]; 40 ppm (*)
  Test A disease control rating: 100* %
Septoria tritici; 40 ppm (*)
  Test C disease control rating: 97* %
Septoria nodorum; 40 ppm (*)
  Test D disease control rating: 100* %

## C=Cc1ccc(-c2ccn(-c3ccc(C)c(CNC(=O)OC)c3)n2)c(C)c1 [Cmpd 113]
[1]; 40 ppm (*)
  Test B disease control rating: 99* %
[2]; 40 ppm (*)
  Test A disease control rating: 40* %
Septoria tritici; 40 ppm (*)
  Test C disease control rating: 74* %
Septoria nodorum; 40 ppm (*)
  Test D disease control rating: 100* %

## CCOc1ccc(-n2ccc(-c3ccc(C)c(CNC(=O)OC)c3)n2)c(C)c1 [Cmpd 120]
[1]; 50 ppm (**)
  Test B disease control rating: 100** %
[2]; 50 ppm (**)
  Test A disease control rating: 100** %
Septoria tritici; 50 ppm (**)
  Test C disease control rating: 99** %

## COC(=O)NCc1cc(-c2ccn(-c3ccc(OC(C)C)cc3C)n2)ccc1C [Cmpd 121]
[1]; 50 ppm (**)
  Test B disease control rating: 100** %
[2]; 50 ppm (**)
  Test A disease control rating: 100** %
Septoria tritici; 50 ppm (**)
  Test C disease control rating: 98** %

## COC(=O)NCc1cc(-c2ccn(-c3ccc(OC4CCCCC4)cc3C)n2)ccc1C [Cmpd 122]
[1]; 40 ppm (*)
  Test B disease control rating: 91* %
[2]; 40 ppm (*)
  Test A disease control rating: 87* %

## COC(=O)NCc1cc(-c2ccn(-c3ccc(C(C)(C)C)cc3C)n2)ccc1C [Cmpd 124]
[1]; 40 ppm (*)
  Test B disease control rating: 100* %
[2]; 40 ppm (*)
  Test A disease control rating: 99* %

## CCCOc1ccc(-n2ccc(-c3ccc(C)c(CNC(=O)OC)c3)n2)c(C)c1 [Cmpd 125]
[1]; 40 ppm (*)
  Test B disease control rating: 100* %
[2]; 40 ppm (*)
  Test A disease control rating: 98* %

## COCCOc1ccc(-n2ccc(-c3ccc(C)c(CNC(=O)OC)c3)n2)c(C)c1 [Cmpd 126]
[1]; 40 ppm (*)
  Test B disease control rating: 100* %
[2]; 40 ppm (*)
  Test A disease control rating: 87* %

## COC(=O)NCc1cc(-n2ccc(-c3ccc(C)cc3Br)n2)ccc1C [Cmpd 127]
[1]; 40 ppm (*)
  Test B disease control rating: 100* %
[2]; 40 ppm (*)
  Test A disease control rating: 100* %
Septoria tritici; 40 ppm (*)
  Test C disease control rating: 93* %
Septoria nodorum; 40 ppm (*)
  Test D disease control rating: 100* %

## CCOc1ccc(-c2ccn(-c3ccc(C)c(CNC(=O)OC)c3)n2)c(C)c1 [Cmpd 128]
[1]; 40 ppm (*)
  Test B disease control rating: 100* %
[2]; 40 ppm (*)
  Test A disease control rating: 99* %
Septoria tritici; 40 ppm (*)
  Test C disease control rating: 98* %
Septoria nodorum; 40 ppm (*)
  Test D disease control rating: 100* %

## CCOc1cc(F)ccc1-c1ccn(-c2ccc(C)c(CNC(=O)OC)c2)n1 [Cmpd 129]
[1]; 40 ppm (*)
  Test B disease control rating: 100* %
[2]; 40 ppm (*)
  Test A disease control rating: 98* %
Septoria tritici; 40 ppm (*)
  Test C disease control rating: 68* %
Septoria nodorum; 40 ppm (*)
  Test D disease control rating: 100* %

## COC(=O)NCc1cc(-n2ccc(-c3ccc(C)nc3OC)n2)ccc1C [Cmpd 131]
[1]; 40 ppm (*)
  Test B disease control rating: 100* %
[2]; 40 ppm (*)
  Test A disease control rating: 99* %
Septoria tritici; 40 ppm (*)
  Test C disease control rating: 97* %
Septoria nodorum; 40 ppm (*)
  Test D disease control rating: 100* %

## COC(=O)NCc1cc(-n2ncc(-c3ccc(C(F)(F)F)cc3C(F)(F)F)n2)ccc1C [Cmpd 132]
[1]; 50 ppm (**)
  Test B disease control rating: 99** %
[2]; 50 ppm (**)
  Test A disease control rating: 100** %
Septoria nodorum; 50 ppm (**)
  Test D disease control rating: 100** %

## COC(=O)NCc1cc(-c2ccn(-c3ccc(C(C)C)cc3C)n2)ccc1C [Cmpd 133]
[1]; 50 ppm (**)
  Test B disease control rating: 100** %
[2]; 50 ppm (**)
  Test A disease control rating: 100** %
Septoria nodorum; 50 ppm (**)
  Test D disease control rating: 100** %

## COC(=O)NCc1cc(-c2ccn(-c3ccc(OCC(C)C)cc3C)n2)ccc1C [Cmpd 134]
[1]; 50 ppm (**)
  Test B disease control rating: 100** %
[2]; 50 ppm (**)
  Test A disease control rating: 99** %
Septoria nodorum; 50 ppm (**)
  Test D disease control rating: 100** %

## CCOc1ccc(-c2ccn(-c3ccc(C)c(CNC(=O)OC)c3)n2)c(F)c1 [Cmpd 137]
[1]; 40 ppm (*)
  Test B disease control rating: 100* %
[2]; 40 ppm (*)
  Test A disease control rating: 100* %
Septoria tritici; 40 ppm (*)
  Test C disease control rating: 97* %
Septoria nodorum; 40 ppm (*)
  Test D disease control rating: 100* %

## CCOc1cc(C)ccc1-c1ccn(-c2ccc(C)c(CNC(=O)OC)c2)n1 [Cmpd 138]
[1]; 40 ppm (*)
  Test B disease control rating: 100* %
[2]; 40 ppm (*)
  Test A disease control rating: 99* %
Septoria tritici; 40 ppm (*)
  Test C disease control rating: 95* %
Septoria nodorum; 40 ppm (*)
  Test D disease control rating: 100* %

## COC(=O)NCc1cc(-n2ccc(-c3ccc(C(C)=O)cc3C)n2)ccc1C [Cmpd 140]
[1]; 40 ppm (*)
  Test B disease control rating: 100* %
[2]; 40 ppm (*)
  Test A disease control rating: 91* %
Septoria tritici; 40 ppm (*)
  Test C disease control rating: 94* %
Septoria nodorum; 40 ppm (*)
  Test D disease control rating: 100* %

## COC(=O)NCc1cc(-n2ncc(-c3ccc(Br)cc3OC)n2)ccc1C [Cmpd 141]
[1]; 40 ppm (*)
  Test B disease control rating: 100* %
[2]; 40 ppm (*)
  Test A disease control rating: 99* %
Septoria tritici; 40 ppm (*)
  Test C disease control rating: 97* %
Septoria nodorum; 40 ppm (*)
  Test D disease control rating: 100* %

## CCOc1ccc(-c2ccn(-c3ccc(C)c(CNC(=O)OC)c3)n2)c(C)n1 [Cmpd 142]
[1]; 40 ppm (*)
  Test B disease control rating: 100* %
[2]; 40 ppm (*)
  Test A disease control rating: 99* %
Septoria tritici; 40 ppm (*)
  Test C disease control rating: 99* %
Septoria nodorum; 40 ppm (*)
  Test D disease control rating: 100* %

## COC(=O)NCc1cc(-n2ncc(-c3ccc(OC)cc3Br)n2)ccc1C [Cmpd 143]
[1]; 40 ppm (*)
  Test B disease control rating: 100* %
[2]; 40 ppm (*)
  Test A disease control rating: 99* %
Septoria tritici; 40 ppm (*)
  Test C disease control rating: 99* %
Septoria nodorum; 40 ppm (*)
  Test D disease control rating: 100* %

## COC(=O)NCc1cc(-c2ccn(-c3ccc(C)nc3C)n2)ccc1C [Compound 114, methyl N-[[5-[1-(2,6-dimethyl-3-pyridinyl)-1H-pyrazol-3-yl]-2-methylphenyl]methyl]carbamate]
[1]; 40 ppm (*)
  pest or weed control at 40 ppm: 100%
[2]; 40 ppm (*)
  pest or weed control at 40 ppm: 90%
Septoria tritici; 40 ppm (*)
  pest or weed control at 40 ppm: 86%
Septoria nodorum; 40 ppm (*)
  pest or weed control at 40 ppm: 100%

## COC(=O)NCc1cc(-c2ccn(-c3ccc(OC(F)(F)F)cc3C)n2)ccc1C [Compound 123, methyl N-[[2-methyl-5-[1-[2-methyl-4-(trifluoromethoxy)phenyl]-1H-pyrazol-3-yl]phenyl]methyl]carbamate]
[1]; 40 ppm (*)
  pest or weed control at 40 ppm: 100%
[2]; 40 ppm (*)
  pest or weed control at 40 ppm: 99%

## COC(=O)NCc1cc(-n2ccc(-c3ccc(C)nc3C)n2)ccc1C [Compound 130, methyl N-[[5-[3-(2,6-dimethyl-3-pyridinyl)-1H-pyrazol-1-yl]-2-methylphenyl]methyl]carbamate]
[1]; 40 ppm (*)
  pest or weed control at 40 ppm: 99%
[2]; 40 ppm (*)
  pest or weed control at 40 ppm: 96%
Septoria tritici; 40 ppm (*)
  pest or weed control at 40 ppm: 86%
Septoria nodorum; 40 ppm (*)
  pest or weed control at 40 ppm: 100%

## COC(=O)NCc1cc(-n2ncc(-c3ccc(OC)nc3OC)[n+]2[O-])ccc1C [Compound 135]
[1]; 50 ppm (**)
  pest or weed control at 50 ppm: 100%
[2]; 50 ppm (**)
  pest or weed control at 50 ppm: 99%
Septoria nodorum; 50 ppm (**)
  pest or weed control at 50 ppm: 100%

## COC(=O)NCc1cc(-n2ncc(-c3ccc(OC)nc3OC)n2)ccc1C [Compound 136, methyl N-[[5-[4-(2,6-dimethoxy-3-pyridinyl)-2H-1,2,3-triazol-2-yl]-2-methylphenyl]methyl]carbamate]
[1]; 50 ppm (**)
  pest or weed control at 50 ppm: 100%
[2]; 50 ppm (**)
  pest or weed control at 50 ppm: 99%
Septoria nodorum; 50 ppm (**)
  pest or weed control at 50 ppm: 100%

## methyl N-[[5-[1-(2,6-dimethoxy-3-pyridinyl)-1H-pyrazol-3-yl]-2-methylphenyl]-methyl]carbamate [Compound 116]
[1]; 50 ppm (**)
  Test B disease control rating: 100** %
[2]; 50 ppm (**)
  Test A disease control rating: 100** %
Septoria tritici; 50 ppm (**)
  Test C disease control rating: 99** %
